Results: ChEMBL document CHEMBL1127066, “Discovery and structure-activity relationship of a series of 1-carba-1-dethiacephems exhibiting activity against methicillin-resistant Staphylococcus aureus” (J Med Chem, 1993)

Legend:
Assay type in all cases: functional
[1] = system: Klebsiella; experiment: In vitro antimicrobial activity against Klebsiella X26 strain
[2] = system: Staphylococcus aureus; experiment: In vitro antimicrobial activity against Staphylococcus aureus X1.1 strain
[3] = system: Staphylococcus epidermidis; experiment: In vitro antimicrobial activity against Staphylococcus epidermidis 270 strain
[4] = system: Pseudomonas aeruginosa; experiment: Antimicrobial activity against Pseudomonas PS18 strain
[5] = system: Haemophilus influenzae; experiment: In vitro antimicrobial activity against Haemophilus influenzae C.L. strain
[6] = system: Streptococcus pneumoniae; experiment: In vitro antimicrobial activity against Streptococcus pneumoniae PARK strain
[7] = system: Enterobacter cloacae; experiment: In vitro evaluation of antimicrobial activity against Enterobacter cloacae EB5 strain
[8] = system: Staphylococcus aureus; experiment: In vitro antimicrobial activity against Staphylococcus aureus S13E strain
[9] = system: Staphylococcus aureus; experiment: In vitro antimicrobial activity against Staphylococcus aureus X400 strain
[10] = system: Pseudomonas aeruginosa; experiment: In vitro antimicrobial activity against Pseudomonas X239 strain
[11] = system: Staphylococcus epidermidis; experiment: In vitro antimicrobial activity against Staphylococcus epidermidis 222 strain
[12] = system: Escherichia coli; experiment: In vitro evaluation of antimicrobial activity against Escherichia coli EC14 strain

Structure (SMILES): Nc1nc(/C(=N\OCCF)C(=O)N[C@@H]2C(=O)N3C(C(=O)[O-])=C(Sc4nc5cc(Cl)ccc5s4)CC[C@H]23)cs1.[Na+]
- MIC [1]: 0.06 µg/mL
- MIC [2]: 0.125 µg/mL
- MIC [3]: 0.5 µg/mL
- MIC [4]: 64 µg/mL
- MIC [5]: 0.06 µg/mL
- MIC [6]: < 0.008 µg/mL
- MIC [7]: 2 µg/mL
- MIC [8]: 4 µg/mL
- MIC [9]: 8 µg/mL
- MIC [10]: > 128 µg/mL
- MIC [11]: 0.5 µg/mL
- MIC [12]: 0.25 µg/mL

Structure (SMILES): Nc1nc(/C(=N\OCCF)C(=O)N[C@@H]2C(=O)N3C(C(=O)[O-])=C(Sc4nc(C(=O)OCc5ccccc5)cs4)CC[C@H]23)cs1.[Na+]
- MIC [1]: 0.015 µg/mL
- MIC [2]: 0.25 µg/mL
- MIC [3]: 2 µg/mL
- MIC [4]: 64 µg/mL
- MIC [5]: 0.03 µg/mL
- MIC [6]: < 0.008 µg/mL
- MIC [7]: 2 µg/mL
- MIC [8]: 8 µg/mL
- MIC [9]: 32 µg/mL
- MIC [10]: 128 µg/mL
- MIC [11]: 0.5 µg/mL
- MIC [12]: 0.25 µg/mL

Structure (SMILES): Nc1nc(/C(=N\OCCF)C(=O)N[C@@H]2C(=O)N3C(C(=O)[O-])=C(Sc4nc(C(=O)O)cs4)CC[C@H]23)cs1.[Na+]
- MIC [1]: 0.25 µg/mL
- MIC [2]: 2 µg/mL
- MIC [3]: 8 µg/mL
- MIC [4]: 128 µg/mL
- MIC [5]: 0.015 µg/mL
- MIC [6]: 0.015 µg/mL
- MIC [7]: 4 µg/mL
- MIC [9]: > 128 µg/mL
- MIC [10]: > 128 µg/mL
- MIC [11]: 4 µg/mL
- MIC [12]: 0.25 µg/mL

Structure (SMILES): CCOc1ccc2nc(SC3=C(C(=O)[O-])N4C(=O)[C@@H](NC(=O)/C(=N/OCCF)c5csc(N)n5)[C@H]4CC3)sc2c1.[Na+]
- MIC [1]: 0.06 µg/mL
- MIC [2]: 0.25 µg/mL
- MIC [3]: 0.5 µg/mL
- MIC [4]: 128 µg/mL
- MIC [5]: 0.125 µg/mL
- MIC [6]: < 0.008 µg/mL
- MIC [7]: 4 µg/mL
- MIC [8]: 8 µg/mL
- MIC [9]: 8 µg/mL
- MIC [10]: > 128 µg/mL
- MIC [11]: 1 µg/mL
- MIC [12]: 1 µg/mL

Structure (SMILES): Nc1nc(/C(=N\OCCF)C(=O)N[C@@H]2C(=O)N3C(C(=O)[O-])=C(Sc4ccccc4)CC[C@H]23)cs1.[Na+]
- MIC [1]: 0.03 µg/mL
- MIC [2]: 0.5 µg/mL
- MIC [3]: 2 µg/mL
- MIC [4]: 64 µg/mL
- MIC [5]: 0.03 µg/mL
- MIC [6]: 0.015 µg/mL
- MIC [7]: 4 µg/mL
- MIC [8]: 64 µg/mL
- MIC [9]: 128 µg/mL
- MIC [10]: 128 µg/mL
- MIC [11]: 2 µg/mL
- MIC [12]: 0.5 µg/mL

Structure (SMILES): COC(=O)c1sc(SC2=C(C(=O)[O-])N3C(=O)[C@@H](NC(=O)/C(=N/OCCF)c4csc(N)n4)[C@H]3CC2)nc1C.[Na+]
- MIC [1]: 0.125 µg/mL
- MIC [2]: 0.25 µg/mL
- MIC [3]: 8 µg/mL
- MIC [4]: > 128 µg/mL
- MIC [5]: 0.06 µg/mL
- MIC [6]: < 0.008 µg/mL
- MIC [7]: 8 µg/mL
- MIC [8]: 16 µg/mL
- MIC [9]: 128 µg/mL
- MIC [10]: > 128 µg/mL
- MIC [11]: 2 µg/mL
- MIC [12]: 2 µg/mL

Structure (SMILES): Cc1nc(SC2=C(C(=O)[O-])N3C(=O)[C@@H](NC(=O)/C(=N/OCCF)c4csc(N)n4)[C@H]3CC2)sc1C.[Na+]
- MIC [1]: 0.06 µg/mL
- MIC [2]: 0.5 µg/mL
- MIC [3]: 2 µg/mL
- MIC [4]: 64 µg/mL
- MIC [5]: 0.015 µg/mL
- MIC [6]: < 0.008 µg/mL
- MIC [7]: 4 µg/mL
- MIC [8]: 4 µg/mL
- MIC [9]: 32 µg/mL
- MIC [10]: 8 µg/mL
- MIC [11]: 1 µg/mL
- MIC [12]: 0.5 µg/mL

Structure (SMILES): CCCCOC(=O)c1csc(SC2=C(C(=O)[O-])N3C(=O)[C@@H](NC(=O)/C(=N/OCCF)c4csc(N)n4)[C@H]3CC2)n1.[Na+]
- MIC [1]: 0.03 µg/mL
- MIC [2]: 0.5 µg/mL
- MIC [3]: 4 µg/mL
- MIC [4]: 128 µg/mL
- MIC [5]: 0.03 µg/mL
- MIC [6]: < 0.008 µg/mL
- MIC [7]: 4 µg/mL
- MIC [8]: 16 µg/mL
- MIC [9]: 64 µg/mL
- MIC [10]: > 128 µg/mL
- MIC [11]: 1 µg/mL
- MIC [12]: 0.5 µg/mL

Structure (SMILES): Cn1nnnc1SC1=C(C(=O)[O-])N2C(=O)[C@@H](NC(=O)/C(=N/OCCF)c3csc(N)n3)[C@H]2CC1.[Na+]
- MIC [1]: < 0.008 µg/mL
- MIC [2]: 0.5 µg/mL
- MIC [3]: 4 µg/mL
- MIC [4]: > 128 µg/mL
- MIC [5]: 0.015 µg/mL
- MIC [6]: 0.015 µg/mL
- MIC [7]: 0.5 µg/mL
- MIC [8]: 128 µg/mL
- MIC [9]: > 128 µg/mL
- MIC [10]: 16 µg/mL
- MIC [11]: 2 µg/mL
- MIC [12]: 0.06 µg/mL

Structure (SMILES): Nc1nc(/C(=N\OCCF)C(=O)N[C@@H]2C(=O)N3C(C(=O)[O-])=C(Sc4nc(-c5cccnc5)cs4)CC[C@H]23)cs1.[Na+]
- MIC [1]: 0.03 µg/mL
- MIC [2]: 0.25 µg/mL
- MIC [3]: 2 µg/mL
- MIC [4]: 64 µg/mL
- MIC [5]: 0.015 µg/mL
- MIC [6]: < 0.008 µg/mL
- MIC [7]: 2 µg/mL
- MIC [8]: 8 µg/mL
- MIC [9]: 32 µg/mL
- MIC [10]: > 128 µg/mL
- MIC [11]: 0.5 µg/mL
- MIC [12]: 0.25 µg/mL

Structure (SMILES): Cc1csc(SC2=C(C(=O)[O-])N3C(=O)[C@@H](NC(=O)/C(=N/OCCF)c4csc(N)n4)[C@H]3CC2)n1.[Na+]
- MIC [1]: < 0.008 µg/mL
- MIC [2]: 0.5 µg/mL
- MIC [3]: 4 µg/mL
- MIC [4]: 32 µg/mL
- MIC [5]: < 0.008 µg/mL
- MIC [6]: < 0.008 µg/mL
- MIC [7]: 2 µg/mL
- MIC [8]: 4 µg/mL
- MIC [9]: 64 µg/mL
- MIC [10]: 64 µg/mL
- MIC [11]: 0.5 µg/mL
- MIC [12]: 0.25 µg/mL

Structure (SMILES): Nc1nc(/C(=N\OCCF)C(=O)N[C@@H]2C(=O)N3C(C(=O)[O-])=C(Sc4nc5c(N)ncnc5s4)CC[C@H]23)cs1.[Na+]
- MIC [1]: 0.03 µg/mL
- MIC [2]: 0.125 µg/mL
- MIC [3]: 2 µg/mL
- MIC [4]: 64 µg/mL
- MIC [5]: 0.03 µg/mL
- MIC [6]: < 0.008 µg/mL
- MIC [7]: 1 µg/mL
- MIC [8]: 16 µg/mL
- MIC [9]: 32 µg/mL
- MIC [10]: > 128 µg/mL
- MIC [11]: 0.5 µg/mL
- MIC [12]: 0.25 µg/mL

Structure (SMILES): Nc1nc(/C(=N\OCCF)C(=O)N[C@@H]2C(=O)N3C(C(=O)[O-])=C(Sc4ccncc4)CC[C@H]23)cs1.[Na+]
- MIC [1]: 0.015 µg/mL
- MIC [2]: 0.5 µg/mL
- MIC [3]: 2 µg/mL
- MIC [4]: 64 µg/mL
- MIC [5]: 0.015 µg/mL
- MIC [6]: < 0.008 µg/mL
- MIC [7]: 0.5 µg/mL
- MIC [8]: 32 µg/mL
- MIC [9]: 64 µg/mL
- MIC [10]: 16 µg/mL
- MIC [11]: 1 µg/mL
- MIC [12]: 0.06 µg/mL

Structure (SMILES): Nc1nc(/C(=N\OCCF)C(=O)N[C@@H]2C(=O)N3C(C(=O)[O-])=C(Sc4nc(-c5ccncc5)cs4)CC[C@H]23)cs1.[Na+]
- MIC [1]: 0.03 µg/mL
- MIC [2]: 0.125 µg/mL
- MIC [3]: 2 µg/mL
- MIC [4]: > 128 µg/mL
- MIC [5]: 0.03 µg/mL
- MIC [6]: < 0.008 µg/mL
- MIC [7]: 2 µg/mL
- MIC [8]: 8 µg/mL
- MIC [9]: 32 µg/mL
- MIC [10]: > 128 µg/mL
- MIC [11]: 0.5 µg/mL
- MIC [12]: 0.25 µg/mL

Structure (SMILES): Nc1ccc2nc(SC3=C(C(=O)[O-])N4C(=O)[C@@H](NC(=O)/C(=N/OCCF)c5csc(N)n5)[C@H]4CC3)sc2c1.[Na+]
- MIC [1]: 0.03 µg/mL
- MIC [2]: 0.25 µg/mL
- MIC [3]: 1 µg/mL
- MIC [4]: 128 µg/mL
- MIC [5]: 0.03 µg/mL
- MIC [6]: < 0.008 µg/mL
- MIC [7]: 2 µg/mL
- MIC [8]: 4 µg/mL
- MIC [9]: 16 µg/mL
- MIC [10]: > 128 µg/mL
- MIC [11]: 1 µg/mL
- MIC [12]: 0.25 µg/mL

Structure (SMILES): Nc1nc(/C(=N\OCCF)C(=O)N[C@@H]2C(=O)N3C(C(=O)[O-])=C(Sc4nnc(O)c(O)n4)CC[C@H]23)cs1.[Na+]
- MIC [1]: 0.06 µg/mL
- MIC [2]: 4 µg/mL
- MIC [3]: 32 µg/mL
- MIC [4]: > 128 µg/mL
- MIC [5]: 0.03 µg/mL
- MIC [6]: 0.06 µg/mL
- MIC [7]: 0.5 µg/mL
- MIC [9]: > 128 µg/mL
- MIC [10]: > 128 µg/mL
- MIC [11]: 8 µg/mL
- MIC [12]: 0.06 µg/mL

Structure (SMILES): Cn1ccnc1SC1=C(C(=O)[O-])N2C(=O)[C@@H](NC(=O)/C(=N/OCCF)c3csc(N)n3)[C@H]2CC1.[Na+]
- MIC [1]: 0.06 µg/mL
- MIC [2]: 4 µg/mL
- MIC [3]: 32 µg/mL
- MIC [4]: > 128 µg/mL
- MIC [5]: 0.03 µg/mL
- MIC [6]: < 0.008 µg/mL
- MIC [7]: 4 µg/mL
- MIC [9]: > 128 µg/mL
- MIC [10]: > 128 µg/mL
- MIC [11]: 8 µg/mL
- MIC [12]: 0.5 µg/mL
